Test results taken from ChEMBL document CHEMBL5126585, “Synthesis and evaluation of 1,2,3-dithiazole inhibitors of the nucleocapsid protein of feline immunodeficiency virus (FIV) as a model for HIV infection” (Bioorg Med Chem, 2022).
pEC50: −log10 of the molar value.

Legend:
[1] = Cytotoxicity against IL2 independent FL-4 cells assessed as reduction in cell viability measured after 7 days by MTT assay; format: toxicity, cell-based, Felis catus; conditions: cat, time 7 day
[2] = Cytotoxicity against FEA cells assessed as reduction in cell viability incubated for 24 hrs by MTT assay; format: toxicity, cell-based, Felis catus; conditions: cat
[3] = tested on: Feline immunodeficiency virus; assay: Antiviral activity against Feline immunodeficiency virus infected in IL2 independent FL-4 cells assessed as reduction in viral replication treated for 7 days with daily replacement by qRT-PCR analysis; format: functional, organism-based; conditions: FL-4, 168 h
[4] = Therapeutic index, ratio of CC50 for cytotoxicity against IL2 independent FL-4 cells to EC50 for antiviral activity against Feline immunodeficiency virus infected in IL2 independent FL-4 cells; format: toxicity, cell-based; conditions: cat; read-out: Ratio CC50/EC50
[5] = Cytotoxicity against CRFK cells assessed as reduction in cell viability incubated for 24 hrs by MTT assay; format: toxicity, cell-based, Felis catus; conditions: cat

SMILES: Clc1nss/c1=N\c1ccccn1
- CC50 at 168 h [1]: 40 µM
- CC50 at 24 h [2]: 4.6 µM
- pEC50 [3]: 6.42
- selectivity ratio [4]: 105
- CC50 at 24 h [5]: 29 µM

SMILES: Clc1nss/c1=N\c1ccc(Br)cc1
- CC50 at 168 h [1]: > 100 µM
- CC50 at 24 h [2]: 40 µM
- pEC50 [3]: 6.19
- selectivity ratio [4]: > 160
- CC50 at 24 h [5]: > 100 µM

SMILES: Clc1nss/c1=N\c1nccs1
- CC50 at 168 h [1]: 4.7 µM
- CC50 at 24 h [2]: 8.4 µM
- pEC50 [3]: 5.52
- selectivity ratio [4]: 1.6
- CC50 at 24 h [5]: 7.6 µM

SMILES: Clc1nss/c1=N\c1ccccc1Br
- CC50 at 168 h [1]: 39 µM
- CC50 at 24 h [2]: > 100 µM
- pEC50 [3]: 4.92
- selectivity ratio [4]: 3.3
- CC50 at 24 h [5]: > 100 µM

SMILES: Clc1ccc(/N=c2\ssnc2Cl)cc1
- CC50 at 168 h [1]: 45 µM
- CC50 at 24 h [2]: 51 µM
- pEC50 [3]: 6.24
- selectivity ratio [4]: 79
- CC50 at 24 h [5]: > 100 µM

SMILES: N#Cc1ccc(/N=c2\ssnc2Cl)cc1
- CC50 at 168 h [1]: > 100 µM
- CC50 at 24 h [2]: 50 µM
- pEC50 [3]: 6.21
- selectivity ratio [4]: > 160
- CC50 at 24 h [5]: 31 µM

SMILES: Cc1cc(/N=c2\ssnc2Cl)n[nH]1
- CC50 at 168 h [1]: 50 µM
- CC50 at 24 h [2]: 55 µM
- pEC50 [3]: 7.08
- selectivity ratio [4]: 600
- CC50 at 24 h [5]: > 100 µM

SMILES: O=[N+]([O-])c1ccc(/N=c2\ssnc2Cl)cc1
- CC50 at 168 h [1]: 49 µM
- CC50 at 24 h [2]: 50 µM
- pEC50 [3]: 6.54
- selectivity ratio [4]: 170
- CC50 at 24 h [5]: 31 µM

SMILES: Fc1ccc(/N=c2\ssnc2Cl)cc1
- CC50 at 168 h [1]: > 100 µM
- CC50 at 24 h [2]: > 100 µM
- pEC50 [3]: 6.01
- selectivity ratio [4]: > 100
- CC50 at 24 h [5]: > 100 µM

SMILES: FC(F)(F)c1ccc(/N=c2\ssnc2Cl)cc1
- CC50 at 168 h [1]: > 100 µM
- CC50 at 24 h [2]: > 100 µM
- pEC50 [3]: 4.82
- selectivity ratio [4]: > 6.7
- CC50 at 24 h [5]: > 100 µM

SMILES: Clc1nss/c1=N\c1cccc(Br)c1
- CC50 at 168 h [1]: > 100 µM
- CC50 at 24 h [2]: > 100 µM
- pEC50 [3]: < 4.00
- CC50 at 24 h [5]: > 100 µM

SMILES: CSc1ccc(/N=c2\ssnc2Cl)cc1
- CC50 at 168 h [1]: 51 µM
- CC50 at 24 h [2]: 53 µM
- pEC50 [3]: 4.68
- selectivity ratio [4]: 2.4
- CC50 at 24 h [5]: 43 µM

SMILES: Cc1cc(OC(F)(F)F)ccc1/N=c1\ssnc1Cl
- CC50 at 168 h [1]: > 100 µM
- CC50 at 24 h [2]: > 100 µM
- pEC50 [3]: < 4.00
- CC50 at 24 h [5]: > 100 µM

SMILES: Clc1nss/c1=N\c1cc(-c2ccccc2)n[nH]1
- CC50 at 168 h [1]: 4.9 µM
- CC50 at 24 h [2]: 31 µM
- pEC50 [3]: 6.28
- selectivity ratio [4]: 9.2
- CC50 at 24 h [5]: 18 µM

SMILES: Cc1cc(/N=c2\ssnc2Cl)n(Cc2ccccc2)n1
- CC50 at 168 h [1]: 52 µM
- CC50 at 24 h [2]: 30 µM
- pEC50 [3]: 4.66
- selectivity ratio [4]: 2.4
- CC50 at 24 h [5]: 33 µM

SMILES: Clc1nss/c1=N\c1ccc(Oc2ccccc2)cc1
- CC50 at 168 h [1]: > 100 µM
- CC50 at 24 h [2]: > 100 µM
- pEC50 [3]: 4.46
- selectivity ratio [4]: > 2.9
- CC50 at 24 h [5]: > 100 µM

SMILES: Clc1nss/c1=N\c1ccc2c(c1)OCO2
- CC50 at 168 h [1]: 49 µM
- CC50 at 24 h [2]: 53 µM
- pEC50 [3]: 4.70
- selectivity ratio [4]: 2.5
- CC50 at 24 h [5]: 44 µM

SMILES: Clc1nss/c1=N\c1ccc(OCc2ccccc2)cc1
- CC50 at 168 h [1]: 44 µM
- CC50 at 24 h [2]: 74 µM
- pEC50 [3]: 4.64
- selectivity ratio [4]: 1.9
- CC50 at 24 h [5]: > 100 µM

SMILES: CCCCOc1ccc(/N=c2\ssnc2Cl)cc1
- CC50 at 168 h [1]: > 100 µM
- CC50 at 24 h [2]: > 100 µM
- pEC50 [3]: 4.59
- selectivity ratio [4]: > 3.8
- CC50 at 24 h [5]: > 100 µM

SMILES: N#Cc1c(Br)cccc1/N=c1\ssnc1Cl
- CC50 at 168 h [1]: 53 µM
- CC50 at 24 h [2]: 41 µM
- pEC50 [3]: 4.82
- selectivity ratio [4]: 3.5
- CC50 at 24 h [5]: 38 µM

SMILES: Clc1nss/c1=N\c1cc(-c2ccccc2)nn1Cc1ccccc1
- CC50 at 168 h [1]: 53 µM
- CC50 at 24 h [2]: 29 µM
- pEC50 [3]: 4.51
- selectivity ratio [4]: 1.7
- CC50 at 24 h [5]: 37 µM

SMILES: FC(F)(F)Oc1ccc(/N=c2\ssnc2Cl)cc1Br
- CC50 at 168 h [1]: > 100 µM
- CC50 at 24 h [2]: > 100 µM
- pEC50 [3]: < 4.00
- CC50 at 24 h [5]: > 100 µM

SMILES: O=[N+]([O-])c1cccnc1/N=c1\ssnc1Cl
- CC50 at 168 h [1]: 2.6 µM
- CC50 at 24 h [2]: 6.1 µM
- pEC50 [3]: 5.70
- selectivity ratio [4]: 1.3
- CC50 at 24 h [5]: 21 µM

SMILES: CCOc1cccnc1/N=c1\ssnc1Cl
- CC50 at 168 h [1]: 49 µM
- CC50 at 24 h [2]: 45 µM
- pEC50 [3]: 6.26
- selectivity ratio [4]: 90
- CC50 at 24 h [5]: 42 µM

SMILES: Clc1nss/c1=N\c1ccc(I)cc1
- CC50 at 168 h [1]: 49 µM
- CC50 at 24 h [2]: 44 µM
- pEC50 [3]: 6.42
- selectivity ratio [4]: 129
- CC50 at 24 h [5]: 73 µM

SMILES: COc1cccc(/N=c2\ssnc2Cl)n1
- CC50 at 168 h [1]: 47 µM
- CC50 at 24 h [2]: 4.3 µM
- pEC50 [3]: 6.59
- selectivity ratio [4]: 178
- CC50 at 24 h [5]: 34 µM

SMILES: COc1cccnc1/N=c1\ssnc1Cl
- CC50 at 168 h [1]: 61 µM
- CC50 at 24 h [2]: 37 µM
- pEC50 [3]: 5.54
- selectivity ratio [4]: 21
- CC50 at 24 h [5]: 37 µM

SMILES: FC(F)(F)Oc1ccc(/N=c2\ssnc2Cl)cc1Cl
- CC50 at 168 h [1]: 23 µM
- CC50 at 24 h [2]: > 100 µM
- pEC50 [3]: 4.64
- selectivity ratio [4]: 1
- CC50 at 24 h [5]: 85 µM

SMILES: N#Cc1cccnc1/N=c1\ssnc1Cl
- CC50 at 168 h [1]: 51 µM
- CC50 at 24 h [2]: 36 µM
- pEC50 [3]: 6.38
- selectivity ratio [4]: 122
- CC50 at 24 h [5]: 3.1 µM

SMILES: Fc1ccc(F)c(/N=c2\ssnc2Cl)c1
- CC50 at 168 h [1]: 89 µM
- CC50 at 24 h [2]: > 100 µM
- pEC50 [3]: 6.17
- selectivity ratio [4]: 131
- CC50 at 24 h [5]: > 100 µM

SMILES: Clc1ccccc1/N=c1\ssnc1Cl
- CC50 at 168 h [1]: 51 µM
- CC50 at 24 h [2]: 25 µM
- pEC50 [3]: 4.70
- selectivity ratio [4]: 2.6
- CC50 at 24 h [5]: > 100 µM

SMILES: Clc1nss/c1=N\c1cccc(Br)n1
- CC50 at 168 h [1]: 44 µM
- CC50 at 24 h [2]: 52 µM
- pEC50 [3]: 6.32
- selectivity ratio [4]: 92
- CC50 at 24 h [5]: 38 µM

SMILES: FC(F)(F)Oc1ccc(/N=c2\ssnc2Cl)cc1
- CC50 at 168 h [1]: > 100 µM
- CC50 at 24 h [2]: > 100 µM
- pEC50 [3]: < 4.00
- CC50 at 24 h [5]: > 100 µM
